Results as given in PMC3856129, “Cytotoxicity and Genotoxicity Evaluation of Organochalcogens in Human Leucocytes: A Comparative Study between Ebselen, Diphenyl Diselenide, and Diphenyl Ditelluride” (BioMed Research International, 2013).

Experiments:
human leucocytes [1] = experiment: Trypan's Blue exclusion test (cell viability); format: cell-based; settings: for decrease in leucocyte viability: 50 μM; for effect on cell viability at lower concentrations: 5 and 10 μM
Protocol: (§1) 2 mL of dextran 5% (dissolved in Phosphate Buffer Saline 1%) was added to 8 mL of blood. The tube was gently mixed and left to stand at room temperature for 45 min. Afterwards, the supernatant was centrifuged (480 ×g, 10 min) and plasma was discarded. The pellet was washed with erythrocyte lysis solution (NH4Cl 150 mM; NaHCO3 10 mM; EDTA 1 mM) and centrifuged (480 ×g, 2 min). The supernatant was discarded and the pellet was washed twice with 1 mL erythrocyte lysis solution. After the second centrifugation, the pellet was suspended in 2 mL Hank's buffer solution (KCl 5.4 mM; Na2HPO4 0.3 mM; KH2PO4 0.4 mM; NaHCO3 4.2 mM; MgCl2 0.5 mM; NaCl 122.6 mM; D-glicose 10 mM, Tris-HCl 10 mM; CaCl2 1.3 mM; pH 7.4). The concentration of leucocytes was adjusted to 2000 cells/μL.
(§2) Leucocytes were exposed to ebselen, (PhSe)2, and (PhTe)2 at 5, 10, and 50 μM or an equal volume of DMSO (final concentration of 0.5%) during 3 hours at 37°C. Positive control group was treated with hydrogen peroxide (H2O2) 2 mM and sodium azide 1 mM.
Trypan's Blue exclusion test was performed according to Mischel and Shiingi. After 3 hours of incubation, 50 μL of Trypan's Blue 0.4% was mixed with 50 μL of leucocytes and left to stand at room temperature for 5 minutes. Cell viability was determined microscopically (400x magnification) and expressed as number of viable cells divided by the total number of cells multiplied by 100.

human leucocytes [2] = experiment: Comet Assay (DNA damage index); format: cell-based; settings: 3 hours at 37°C, compared to the control group
Protocol: as §1, §2
Comet Assay was performed according to Collins with some modifications. After three hours of incubation, 15 μL of the sample was mixed with 90 μL of low-melting point agarose 0.75% and placed in a slide precoated with agarose 1%. A coverslip was added and the samples were left to solidify at 4°C. The coverslips were removed and the slides were placed on a lysis solution (NaCl 2.5 M; EDTA 100 mM; Tris-HCl 8 mM; Triton X-100 1%; pH 10–10.5) during 24 hours at 4°C. Afterwards, the slides were incubated in an electrophoresis solution (NaOH 300 mM; EDTA 1 mM; pH 13.5) for 20 minutes at 4°C and the electrophoresis was performed (25 V; 300 mA; 7 W) for 20 minutes. All the steps were performed in the dark until this moment. After electrophoresis, the slides were washed in a neutralizing solution (Tris-HCl 400 mM; pH 7.5) three times, washed with distilled water, and left to dry. The slides were rehydrated and fixed (Trichloroacetic acid 15%; ZnSO4 5%; glycerol 5%), washed three with distilled water, and left to dry. Afterwards, the rehydrated slides were stained (Na2CO3 5%; NH4NO3 0.1%; AgNO3 0.1%; H4[W12SiO40] 0.25%; formaldehyde 0.15%). The slides were immersed in acetic acid 1%, washed, and left to dry.
One hundred cells randomly selected were analyzed in each sample according to tail size and intensity in five classes. The damage score for each cell can range between 0 (no damage) and 4 (maximum damage), according to Figure 1. Damage index (DI) was defined as follows: DI = 1n1 + 2n2 + 3n3 + 4n4, where n1 represents the number of cells with damage level 1, n2 represents the number of cells with damage level 2, n3 represents the number of cells with damage level 3, and n4 represents the number of cells with damage level 4. At least two different individuals analyzed the slides under blind conditions.

[3] = 3 hours at 37°C, compared to the control groups

Structure (SMILES) | decrease in leucocyte viability (human leucocytes [1]; human, 3 h, pH 7.4) | damage index (DI) of DNA (human leucocytes [2]; 50 μM) | damage index (DI) of DNA (human leucocytes [2]; 5 and 10 μM) | decrease in leucocyte viability (human leucocytes [1]; [3]) | effect on cell viability at lower concentrations (human leucocytes [1]; 3 hours at 37°C)
O=c1c2ccccc2[se]n1-c1ccccc1 [ebselen, Ebselen] | about 60% | significant increase in DI | did not cause DNA damage | – | –
c1ccc([Se][Se]c2ccccc2)cc1 [(PhSe)2, Diphenyl Diselenide] | – | significant increase in DI | did not cause DNA damage | about 20% | did not cause significant decrease in cell viability
c1ccc([Te][Te]c2ccccc2)cc1 [(PhTe)2, Diphenyl Ditelluride] | – | significant increase in DI | increased DI | about 25% | did not cause significant decrease in cell viability
